# Measurements as given in patent publication EP0880540B1, “17-BETA-CYCLOPROPYL(AMINO/OXY) 4-AZA STEROIDS AS ACTIVE INHIBITORS OF TESTOSTERONE 5-ALPHA-REDUCTASE AND C17-20-LYASE” (Aventis Pharmaceuticals Inc., priority 1996, dated 1997).
# Molecular target: T1, Rat testicular C17,20 lyase (Rattus norvegicus, UniProt P11715)
# T1 construct: testes were excised, capsules were removed, and the tissue was weighed; from tissue; host or cells: testes of male Copenhagen rats (Harlan Laboratories), 10,000 x G supernatant of homogenate
# T1 sequence (P11715 1-507): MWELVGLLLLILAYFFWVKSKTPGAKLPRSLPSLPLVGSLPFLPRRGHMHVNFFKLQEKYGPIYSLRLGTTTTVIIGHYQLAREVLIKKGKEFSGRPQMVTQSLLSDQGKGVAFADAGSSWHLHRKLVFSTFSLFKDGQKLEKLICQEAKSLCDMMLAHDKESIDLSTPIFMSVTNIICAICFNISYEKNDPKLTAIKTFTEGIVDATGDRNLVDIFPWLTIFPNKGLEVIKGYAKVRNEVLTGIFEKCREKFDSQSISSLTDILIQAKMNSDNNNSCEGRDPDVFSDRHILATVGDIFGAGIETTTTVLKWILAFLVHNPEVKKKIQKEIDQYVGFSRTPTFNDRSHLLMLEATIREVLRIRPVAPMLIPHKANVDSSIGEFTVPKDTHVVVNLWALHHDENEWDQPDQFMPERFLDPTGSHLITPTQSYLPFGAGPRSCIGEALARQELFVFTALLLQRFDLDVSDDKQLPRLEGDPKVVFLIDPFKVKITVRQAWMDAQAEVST
# Assay: Ex vivo inhibition of C17,20 lyase in rat testes after dosing
# Parameters: species or system Male Copenhagen rats
# Description: Ex vivo inhibition of C17,20 lyase: MDL 103,432 was tested for ex vivo inhibition of rat and nude mouse testes lyase. Male Copenhagen rats and male athymic nude mice obtained from Harlan Laboratories, Indianapolis, IN, were divided into groups of 5 to 6 based on weight. Average weight was 100-140 g each for rats and 18-35 g each for the mice. Prior to oral dosing, animals were fasted overnight. Test compound was prepared by micronization in a lecithin vehicle using a glass Teflon® pestle-type homogenizer. The compound was brought to volume using lecithin so as to administer 0.5 mL per 100 g animal. Rats and nude mice were given vehicle only (controls) or vehicle plus test compounds peros. Rats were also given the compound in lecithin or lecithin alone subcutaneously. Each group consisted of 5-6 animals. At a specified time after dosing, the animals were anesthetized with CO2 gas, sacrificed by cervical dislocation, testes were excised, capsules were removed, and the tissue was weighed. Two volumes (w/v) of 0.05 M potassium phosphate buffer, pH 7.2, was added to the rat testes tissue on ice, and 11 volumes (w/v) of the same buffer were added to the mouse testes. Tissue was then homogenized using 20 strokes with a Dounce homogenizer equipped with a tight pestle. Homogenized tissue was centrifuged at 800 x G then at 10,000 x G for 15 minutes each. Supernatant was decanted, reserved, and kept chilled on ice. Assays for lyase activity contained the same buffer and NADPH regenerating system described above and also contained […] of 10,000 x G supernatant which was diluted 3-fold resulting in a 5-fold dilution overall in the final assay volume. Substrate, 17α-hydroxyprogesterone plus 1,3-[^3H]-17α-hydroxyprogesterone (40-57 mCi/mmole; 0.18 µCi per assay) to yield a final concentration of 0.1 µM, (=Km) was added to the remaining assay components after a 5 minute equilibration a 20°C of the latter. The total assay volume was 200 µL. Activity was assayed for 20 seconds at 20°C. Assays were terminated, extracted and analyzed as described above except that carrier steroids were 17α-hydroxyprogesterone, androst-4-ene-dione, and testosterone. The organic phase containing the steroids was evaporated using nitrogen gas, the residues dissolved in 18% tetrahydrofuran (v/v) in hexane, and the steroid substrate, 17α-hydroxyprogesterone, and products (AED, TEST) were separated by HPLC on a Si60 (5 µm) column (250 x 4 mm) using 20% (v/v) tetrahydrofuran (THF) in hexane for 20 minutes then ramping to 60% THF (v/v) for 11 minutes. Activity of test compound was expressed as percent inhibition relative to the control and was the mean of each group of treated animals.
smiles,measurement,setting,value
"CC12CCC3C(CC[C@H]4NC(=O)CCC34C)C1CC[C@@H]2OC1CC1 (stereo partly drawn) [MDL 103,432, 17β-Cyclopropyloxy-4-aza-5α-androstan-3-one]",inhibition at 50 mg/kg,"po, 50 mg/kg p.o., 4 hr after dosing",66.4%
same,inhibition at 50 mg/kg,"po, 50 mg/kg p.o., 24 hr after dosing",52.7%
same,inhibition at 50 mg/kg,"sc, 50 mg/kg s.c., 4 hr after dosing",32.9%
same,inhibition at 50 mg/kg,"sc, 50 mg/kg s.c., 24 hr after dosing",40.7%
